Test results published in paper PMC5435539 (Journal of applied toxicology : JAT, 2017).
Like-named read-outs stand apart in the source and are kept apart here.

Experiments:
[1] = system: MCF-7 breast cancer cells; assay: Alamar Blue cell viability assay, 72 h; assay type: cell-based; conditions: read-out: IC50 MCF-7 cell viability, 72 h
[2] = system: MCF-10A breast epithelial cells; assay: Cell viability assay; assay type: cell-based, human; conditions: for IC50: Homo sapiens, MCF-10A, 24 h, read-out: IC50 MCF-10A; for IC50 MCF-10A: 24 h exposure, 1 nM-100 μM, MTS or Alamar Blue, mean ±SEM
[3] = system: HT29 colon carcinoma cells; assay: Cell viability assay; assay type: cell-based; conditions: for IC50 HT29: 24 h exposure, 1 nM-100 μM, MTS or Alamar Blue, mean ±SEM; for IC50: Homo sapiens, HT-29, 24 h, read-out: IC50 HT29
[4] = system: CCD18 Co normal colon cells; assay: Cell viability assay; assay type: cell-based; conditions: for IC50 CCD18 Co: 24 h exposure, 1 nM-100 μM, MTS or Alamar Blue, mean ±SEM
MCF-7 cells [5] = assay: Alamar Blue cell viability assay, 24 h; assay type: cell-based; conditions: read-out: IC50 MCF-7 (Alamar Blue), 24 h treatment
human CYP1A1 = molecular target: T1, human CYP1A1 (Homo sapiens, UniProt P04798); assay: Fluorometric CYP inhibition assay; assay type: biochemical
T1 sequence (P04798 1-512): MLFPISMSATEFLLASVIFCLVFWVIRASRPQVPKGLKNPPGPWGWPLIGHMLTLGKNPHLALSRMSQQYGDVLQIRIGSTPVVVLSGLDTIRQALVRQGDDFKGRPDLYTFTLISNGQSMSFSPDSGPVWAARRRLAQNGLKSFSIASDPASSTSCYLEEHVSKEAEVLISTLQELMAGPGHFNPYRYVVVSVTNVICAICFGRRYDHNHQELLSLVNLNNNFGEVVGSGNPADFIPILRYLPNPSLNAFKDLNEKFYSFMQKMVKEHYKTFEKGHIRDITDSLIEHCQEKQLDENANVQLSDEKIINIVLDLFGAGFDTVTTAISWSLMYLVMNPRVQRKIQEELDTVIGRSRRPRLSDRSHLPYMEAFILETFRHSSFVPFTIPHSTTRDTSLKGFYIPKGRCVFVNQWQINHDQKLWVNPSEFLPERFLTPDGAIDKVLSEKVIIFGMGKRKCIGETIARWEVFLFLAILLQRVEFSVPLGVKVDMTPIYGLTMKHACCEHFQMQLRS

human CYP2C19 = human CYP2C19 (Homo sapiens, UniProt P33261); assay: Fluorometric CYP inhibition assay; assay type: biochemical; conditions: read-out: IC50 CYP2C19 activity; recombinant human CYP2C19, CEC 25 μM
Chain of human CYP2C19 (P33261 whole entry): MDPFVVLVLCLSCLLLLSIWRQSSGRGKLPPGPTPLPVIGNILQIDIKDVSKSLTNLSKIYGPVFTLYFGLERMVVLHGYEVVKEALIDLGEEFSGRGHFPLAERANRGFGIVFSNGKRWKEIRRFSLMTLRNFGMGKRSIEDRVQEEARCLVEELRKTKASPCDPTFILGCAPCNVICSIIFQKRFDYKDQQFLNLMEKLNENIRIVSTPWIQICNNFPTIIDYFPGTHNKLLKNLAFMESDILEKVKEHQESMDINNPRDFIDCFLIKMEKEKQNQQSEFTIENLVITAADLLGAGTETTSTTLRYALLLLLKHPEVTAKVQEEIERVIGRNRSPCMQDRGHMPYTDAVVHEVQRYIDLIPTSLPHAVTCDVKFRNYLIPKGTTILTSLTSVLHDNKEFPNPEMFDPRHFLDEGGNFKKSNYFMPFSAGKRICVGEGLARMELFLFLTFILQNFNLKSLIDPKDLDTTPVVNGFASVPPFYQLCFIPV

CYP1A2 mRNA = assay: Real-time quantitative RT-PCR, B[a]P-induced gene expression in MCF-7 cells; assay type: cell-based; conditions: Gg 10-100 nM with B[a]P, 24 h
CYP1 enzymes mRNA = assay: Endogenous CYP1 mRNA expression in breast cancer cells; assay type: cell-based; conditions: Gg alone, data not shown
[6] = system: CYP1A1 protein expression; assay: B[a]P-induced CYP1A1 protein expression; assay type: cell-based; conditions: data not shown
[7] = system: MCF-10A breast epithelial cells; assay: Reactive oxygen species; assay type: cell-based, human; conditions: 2 h, MCF-10A cells
human CYP3A4 = human CYP3A4 (Homo sapiens, UniProt P08684); assay: Fluorometric CYP inhibition assay; assay type: biochemical; conditions: read-out: IC50 CYP3A4 activity; recombinant human CYP3A4, BFC 50 μM
Chain of human CYP3A4 (P08684 whole entry): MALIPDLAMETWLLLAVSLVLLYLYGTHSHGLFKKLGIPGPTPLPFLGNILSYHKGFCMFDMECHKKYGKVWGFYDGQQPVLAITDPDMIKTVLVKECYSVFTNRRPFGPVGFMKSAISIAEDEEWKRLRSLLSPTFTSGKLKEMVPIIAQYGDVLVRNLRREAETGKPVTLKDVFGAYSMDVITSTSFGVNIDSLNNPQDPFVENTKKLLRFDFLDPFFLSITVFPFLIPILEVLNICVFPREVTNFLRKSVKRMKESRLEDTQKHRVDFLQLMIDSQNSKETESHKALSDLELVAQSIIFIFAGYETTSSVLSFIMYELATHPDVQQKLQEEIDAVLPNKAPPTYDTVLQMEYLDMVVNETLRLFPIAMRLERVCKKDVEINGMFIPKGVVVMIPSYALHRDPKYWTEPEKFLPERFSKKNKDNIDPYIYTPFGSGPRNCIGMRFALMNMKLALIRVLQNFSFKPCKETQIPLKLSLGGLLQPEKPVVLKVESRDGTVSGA

CYP1A1 mRNA = assay: Real-time quantitative RT-PCR, B[a]P-induced gene expression in MCF-7 cells; assay type: cell-based; conditions: Gg 10-100 nM with B[a]P, 24 h
human CYP1B1 = molecular target: T2, human CYP1B1 (Homo sapiens, UniProt Q16678); assay: Fluorometric CYP inhibition assay; assay type: biochemical; conditions: recombinant human CYP1B1
T2 sequence (Q16678 1-543): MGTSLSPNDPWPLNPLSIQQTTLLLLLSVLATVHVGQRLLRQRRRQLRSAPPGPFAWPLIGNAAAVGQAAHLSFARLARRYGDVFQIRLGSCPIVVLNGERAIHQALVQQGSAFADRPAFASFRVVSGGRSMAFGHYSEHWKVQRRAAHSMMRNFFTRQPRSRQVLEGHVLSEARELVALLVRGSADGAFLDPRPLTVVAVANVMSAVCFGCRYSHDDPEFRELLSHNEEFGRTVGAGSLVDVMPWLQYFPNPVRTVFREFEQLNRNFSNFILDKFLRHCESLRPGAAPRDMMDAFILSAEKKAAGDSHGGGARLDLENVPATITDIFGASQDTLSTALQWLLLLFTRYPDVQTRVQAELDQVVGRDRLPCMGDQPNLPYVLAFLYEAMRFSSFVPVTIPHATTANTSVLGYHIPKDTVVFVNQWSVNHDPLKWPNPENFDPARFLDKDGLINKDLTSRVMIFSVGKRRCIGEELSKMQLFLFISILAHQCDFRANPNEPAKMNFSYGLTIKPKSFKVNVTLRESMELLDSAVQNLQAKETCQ

MCF-7 cells [8] = assay: Annexin V-7AAD apoptosis assay; assay type: cell-based; conditions: 1 μM, 24 h, AnnexinV-7AAD

With COc1cccc2c1C(=O)c1c(O)c3c(c(O)c1C2=O)C[C@@](O)(C(=O)CO)C[C@@H]3O[C@H]1C[C@H](N)[C@H](O)[C@H](C)O1 [Doxorubicin, reference compound] the IC50 ([1]; Homo sapiens, MCF7, 72 h) was 0.1 µM and the IC50 [2] was 30.2 ± 1.29 µM.
In the case of CC1=CC(=O)[C@@H](O)[C@]2(C)[C@H]3[C@]4(O)OC[C@]35[C@H]([C@@H](C)[C@H]4O)[C@@H](O)C(=O)O[C@@H]5C[C@@H]12 [(−)-Glaucarubolone, (−)-glaucarubolone], the “IC50 HT29” value [3] is reported as “NI (No inhibition (<10% inhibition at 60 μM))”, the “IC50 CCD18 Co” value [4] is reported as “NI (No inhibition (<10% inhibition at 60 μM))” and the “IC50 MCF-10A” value [2] is reported as “NI (No inhibition (<10% inhibition at 60 μM))”.
In the case of COc1cc2ccc(=O)oc2cc1O [Scopoletin, scopoletin], the IC50 [3] is reported as 19.3 ± 0.348 µM, the “IC50 CCD18 Co” value [4] is reported as “NI (No inhibition (<10% inhibition at 60 μM))” and the “inhibition of viability of CCD18Co normal colon cells” value ([4]; at 60 μM, 24 h) is reported as less than 10%. For the same compound, the “IC50 MCF-10A” value [2] was “NI (No inhibition (<10% inhibition at 60 μM))”.
With CC(=O)O[C@H]1C(=O)O[C@@H]2C[C@H]3C(C)=CC(=O)[C@@H](O)[C@]3(C)[C@H]3[C@]4(O)OC[C@]32[C@@H]1[C@@H](C)[C@H]4O [(−)-Holacanthone, (−)-holacanthone] the IC50 [3] was 9.91 ± 0.52 µM, the IC50 ([4]; Homo sapiens, CCD-18Co, 24 h, read-out: IC50 CCD18 Co) was less than 5 µM and the IC50 [2] was 0.3 µM.
In the case of O=c1[nH]cc(F)c(=O)[nH]1 [5-Fluorouracil, reference compound], the IC50 ([1]; Homo sapiens, MCF7, 72 h) is reported as greater than 10 µM and the “IC50 MCF-10A” value [2] is reported as “NI (No inhibition (<10% inhibition at 60 μM))”.
CC/C(=C(\c1ccc(O)cc1)c1ccc(OCCN(C)C)cc1)c1ccccc1 [4OH-Tam, 4-hydroxy-tamoxifen] gave an IC50 ([1]; Homo sapiens, MCF7, 72 h) of 2.6 µM.
In the case of glaucarubulone glucoside [Gg], the “IC50 HT29” value [3] is reported as “NI (No inhibition (<10% inhibition at 60 μM))”, the IC50 (MCF-7 cells [5]) is reported as 3.52 ± 0.918 µM and the “mode of inhibition of CYP1A1” value (human CYP1A1; Eadie-Hofstee plots) is reported as “non-competitive”. For the same compound, the IC50 (human CYP1A1; read-out: IC50 CYP1A1 activity, recombinant human CYP1A1, CEC 0.5 μM) was 6.93 ± 0.31 µM, the Ki (human CYP1A1; read-out: Ki CYP1A1, Eadie-Hofstee plots, non-competitive inhibition) was 7.1 ± 1.44 µM and the IC50 (human CYP2C19) was 19.4 ± 1.11 µM. The “effect on B[a]P-induced CYP1A2 mRNA expression” value (CYP1A2 mRNA) was “sustained inhibition”, the “effect on endogenous mRNA expression of CYP1 enzymes” value (CYP1 enzymes mRNA) was “did not appreciably affect” and the “effect on B[a]P-mediated induced CYP1A1 protein expression” value [6] was “could not appreciably suppress”. For the same compound, the “effect on 1,6-BPQ-mediated increases in ROS production” value ([7]; Gg 1 μM with 1,6-BPQ 2 μM) was “effectively suppressed”, the IC50 (human CYP3A4) was 1.31 ± 0.49 µM and the “effect on B[a]P-induced CYP1A1 mRNA expression” value (CYP1A1 mRNA) was “inhibited B[a]P-induced CYP1A1 mRNA expression in a dose-dependent fashion”. The IC50 ([1]; 72 h exposure, Alamar Blue) was 0.121 µM, the “IC50 MCF-10A” value [2] was “NI (No inhibition (<10% inhibition at 60 μM))” and the “inhibition of CYP1B1 activity” value (human CYP1B1) was “moderately inhibited”. It also gave an early apoptosis (MCF-7 cells [8]) of 26.5 ± 9.5%.
For O=C1C=Cc2ccc3c4c(ccc1c24)-c1ccccc1C3=O [1,6-BPQ, benzo[a]pyrene-1,6-quinone, reference compound], the “increase in ROS levels” value ([7]; 1,6-BPQ 2 μM) was 2 fold.
Work on CCC1(c2ccccc2)C(=O)NC(=O)N(Cc2ccccc2)C1=O (single isomer, unassigned; (-)) [NBPB, (−)-N-3-benzyl-phenobarbital, reference compound] yielded an IC50 (human CYP2C19) of 0.3 ± 0.01 µM.
